Data set [1] has as its system MLO-Y4 osteocytes. As to the kind of experiment: Oscillatory fluid flow-induced mRNA expression (COX-2, OPN, AC6), flow vs no flow. Type of data set: cell-based.
Data set [2] concerns MLO-Y4 osteocytes. The data set is described as follows: Primary cilia length and incidence by immunocytochemistry (acetylated α-tubulin). Type of data set: cell-based. As to the method:
MLO-Y4 osteocytes were cultured on collagen-coated dishes in MEMα (Life Tech) supplemented with 5% fetal bovine serum, 5% calf serum, and 1% penicillin/streptomycin at 37° C. and 5% CO2. […] These agents, or their vehicle control, were applied to cells for 16 h prior to experimentation. MTT, (methylthiazolyldiphenyl-tetrazolium bromide) assay (Sigma) was performed according to manufacturer's protocol to assess cell viability during drug treatments. Phase contrast microscopy with an Olympus CKX41 inverted microscope and 40× objective was used to assess cell morphology.
For primary cilia imaging and analysis, cells cultured on collagen I-coated glass were fixed in 10% formalin and treated with anti-acetylated α-tubulin primary antibody, 1:1, from a C3B9 hybridoma cell line (Sigma). Cilia were visualised with Alexa-Fluor 488 secondary antibody, 1:1000 (Life Technologies) and imaged with a 100× oil objective on an Olympus Fluoview FV1000 confocal microscope. Nuclei were stained with DAPI (Life Technologies). Cilia length was analyzed using Image J software.
Gene silencing was performed by siRNA mediated knockdown and compared to scramble siRNA control (Life Technologies). […]

The test system of the next data set is C57Bl/6 mice. The data set is described as follows: Load-induced bone formation: compressive ulnar loading and dynamic histomorphometry. Type of data set: in vivo.
For the next data set, the system named is MC3T3 osteoblasts. As to the kind of experiment: Flow-induced paracrine signaling: conditioned media of treated osteocytes on osteoblasts (OPN mRNA). Type of data set: cell-based. As to conditions: osteocytes treated with tubastatin 5 μM 3-4 hours; 12 hrs flow; osteoblasts cultured 24 hours.
Data set [3] relates to MLO-Y4 osteocytes. The data set is described as follows: High-throughput drug screening of primary cilia length and incidence. Type of data set: cell-based. The conditions noted are these: 10 μM, 16 hours, triplicate; normalized to vehicle control; standard deviation away from the population average. Put shortly: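 MLO-Y4 osteocytes on collagen I, treated 16 h with 10 μM compound in triplicate, fixed, stained for acetylated α-tubulin and Hoechst, imaged at 40× (4 fields/well); cilia length and incidence normalized to plate DMSO controls. Hits ranked by SD from population mean, requiring ≥40% viability by nuclei count.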

Where [4] appears, read: AC6 siRNA, mechanically stimulated cells.

From patent publication US20190015423A1, “REGULATION OF GENE EXPRESSION BY MODULATING PRIMARY CILIA LENGTH” (THE TRUSTEES OF COLUMBIA UNIVERSITY IN THE CITY OF NEW YORK, priority 2016, published 2019) come the findings set out here.

Entries after “also recorded” stand apart in the source; their conditions may differ. Counter-ions that a name gives are not always drawn.

From the text for C57Bl/6 mice: All data are shown in reference to the non-loaded contralateral limb as control. […] On day 4-6 the mice were subjected to daily axial compressive ulnar loading. Mice were placed under isoflurane anesthesia and forelimbs were placed between two loading cups controlled by an electromagnetic loading system with feedback control (Bose, ELF 3220). An initial 0.1 N preload was applied, followed by 3 N of cyclic compression applied with a 2 Hz sine wave for 120 cycles, generating a strain gage verified average peak deformation of 1895 μstrain. On day 8, mice were subcutaneously injected with calcein (10 mg/kg) and alizarin red (70 mg/kg) on day 12. Mice were euthanized on day 18 and prepared for dynamic histomorphometric analysis.
Compressive ulnar loading was applied on days 5-7 to mechanically stimulate bone (3N at 2 Hz for 120 cycles) [9].
On the final three days of drug or control injection, animals were also subjected to compressive ulnar load at a peak load of 3 N using a 2 Hz sine wave for 120 cycles, as previously described (Temiyasathit, S. et al. PLoS One 7, (2012); Lee, K. L. et al. FASEB J. 28, 1157-1165 (2014)). Contralateral limbs served as a non-loaded control. 2 days following load, mice were treated with 10 mg/kg calcein (Sigma), and 4 days later 70 mg/kg alizarin (Sigma), with mice being sacrificed 6 days later.
Dynamic histomorphometry was performed as previously described, measuring the amount and separation of calcein and alizarin labels to quantify mineralizing surface (rMS/BS), mineral apposition rate (rMAR), and bone formation rate (rBFR/BS) relative to non-loaded controls (Temiyasathit, S. et al. PLoS One 7, (2012); Lee, K. L. et al. FASEB J. 28, 1157-1165 (2014)). Left and right ulnae were dissected and preserved in ethanol. Samples were then infiltrated with methyl methacrylate, and embedded in methyl methacrylate and benzoyl peroxide. Transverse sections of the ulnar midshaft were imaged on a laser scanning confocal microscope (Olympus Fluoview FV1000). Measurements of outer bone perimeter (OP), single label perimeter (SL), double label perimeter (DL), and double label area (DA) were made in ImageJ. The mineralizing surface relative to outer bone surface (MS/BS), mineral apposition rate (MAR), and bone formation rate (BFS/BS) were calculated as:
Relative measurements—rMS/BS, rMAR, rBFR/BS—were determined by subtracting non-loaded from loaded ulnae to display differences due to mechanical load.

Take “AC6 siRNA: siRNA 5′-CCTGCCACCTACAACAGCTCAATTA-3′ (SEQ ID NO:2) (listed as DNA, chemistry not given here)”: in the data set on MLO-Y4 osteocytes [1] (setting [4]), the “decrease of AC6 expression” value was 50%±3% and the “decrease of flow-induced OPN expression” value is given as 30%±3%. In the data set on MLO-Y4 osteocytes [2] (AC6 siRNA), the cilia incidence result is given as “no effect; also recorded: Neither AC6 siRNA nor fenoldopam alter cilia incidence” and the “decrease in cilia length” value is 10%±3%.
With `CN1CCc2c(c3ccccc3n2Cc2ccc(C(=O)NO)cc2)C1` [tubastatin, tubastatin A], the “relative bone formation rate (rBFR)” value is “did not elicit a marked change” in the data set on C57Bl/6 mice (tubastatin 5 mg/kg s.c. 6 consecutive days, load day 4-6, n=3, preliminary study) and “slightly decreased” in the data set on C57Bl/6 mice (tubastatin 5 mg/kg s.c. 6 consecutive days, load day 4-6, n=3, preliminary study, listed as Tubastatin). Besides, in the data set on C57Bl/6 mice (tubastatin 5 mg/kg s.c. 6 consecutive days, data not shown), the “decrease in active mineralizing surface (rMS/BS)” value is reported as “over 50%”. The “osteoblast osteogenic gene (osteopontin, OPN) expression after conditioned media from flow-stimulated osteocytes” value with MC3T3 osteoblasts was “decreased; also recorded: impaired”.
For `CCCCCCCCCC(=O)O[C@@H]1[C@@H](C)[C@@]2(O)[C@@H](C=C(CO)C[C@@]3(O)C(=O)C(C)=C[C@@H]23)[C@@H]2C(C)(C)[C@]12OC(=O)CCCCCCCCC` [4αPDD], in the data set with C57Bl/6 mice (4αPDD 250 μg/kg s.c. 6 consecutive days, load day 4-6, n=3, preliminary study), the “relative bone formation rate (rBFR/BS) compared to vehicle control” value was “did not promote a significant increase”.
“IFT88 siRNA: siRNA 5′-CCAGAAACAGATGAGGACGACCTTT-3′ (SEQ ID NO:1) (listed as DNA, chemistry not given here)”: in the data set on MLO-Y4 osteocytes [1] (IFT88 siRNA, flow 1 h), the “decrease of flow-induced OPN mRNA expression compared to scramble control” value is on record as 43%±2%. Also, in the data set with MLO-Y4 osteocytes [2] (20 μM IFT88 siRNA, 48 hours), the “primary cilia incidence compared to scramble control” value was “lower incidence; also recorded: decreases” and the “primary cilia length compared to scramble control” value is on record as “significantly shorter; also recorded: decreased”.
As for `CCCOc1ccc(C(=O)OCCN(CC)CC)cc1N` [Proparacaine HCl], the “Average Incidence SD Away” value in the data set on MLO-Y4 osteocytes [3] was 1.523 SD.
For the compound `CCOC(=O)N1CCC(=C2c3ccc(Cl)cc3CCc3cccnc32)CC1` [Loratidine], the “Average Length SD Away” value in the data set on MLO-Y4 osteocytes [3] came out at 2.261 SD.
Take `CN1Cc2ccccc2[C@@H]2c3cccc4[nH]cc(c34)C[C@H]21` [CY 208-243]: the “Average Length SD Away” value in the data set on MLO-Y4 osteocytes [3] worked out at 2.567 SD.
Take `C=C[C@H]1C[N@@]2CC[C@H]1C[C@H]2[C@H](O)c1ccnc2ccc(OC)cc12` [QUININE SULFATE]: in the data set with MLO-Y4 osteocytes [3], the “Average Length SD Away” value came out at 1.802 SD.
With `O=c1[nH]c(=O)n([C@H]2C[C@H](O)[C@@H](CO)O2)cc1F` [Floxuridine], in the data set with MLO-Y4 osteocytes [3], the “Average Incidence SD Away” value is listed as 1.58 SD and the “Average Length SD Away” value was 1.672 SD.
For `CCOC(=O)[C@H](CCc1ccccc1)N[C@H]1CS[C@H](c2cccs2)CN(CC(=O)O)C1=O` [Temocapril HCl], in the data set on MLO-Y4 osteocytes [3], the “Average Incidence SD Away” value came to 1.877 SD.
As to `CC(=O)O[C@H]1C[C@@H](OC(C)=O)C(C)(C)[C@@H]2C[C@@H](OC(C)=O)[C@]3(C)[C@H](CC[C@@]4(C)[C@H](c5ccoc5)OC(=O)[C@H]5O[C@@]534)[C@@]12C` [KHIVORIN], the “Average Length SD Away” value with MLO-Y4 osteocytes [3] is recorded as 1.723 SD.
